Measurements published in patent US12168003B2, “Selective inhibition of T follicular helper cells for treatment of autoimmune disorders” (priority 2019, dated 2024).

Test system: eIF4E
Test: Silencing of eIF4E in OT2 T cells by lentivirus shRNA, adoptive transfer and OVA/Alum
Assay type: in vivo, mouse
Experimental: HEK 293T cells were transfected with pTRIPZ plasmid expressing NS shRNA ([…] (SEQ ID NO: 5)) or eIF4E shRNA ([…] (SEQ ID NO: 6)) along with psPAX2 and pMD2.G in Lipofectamine™ 2000 and Opti-MEM®. Supernatant was collected 48 hours later and centrifuged at 3000×g for 15 minutes at room temperature. Cell debris pellet was discarded and supernatant was incubated with PEG-it™ (System Biosciences) at 4° C. for 24 to 48 hours and then centrifuged for 1500×g for 30 minutes at 4° C. Supernatant was discarded and viral pellet was resuspended in cold PBS and frozen at −80° C. until use.
CD4^+ T cells were isolated (EasySep™ CD4^+ T cell isolation; StemCell) from OT2 mice (>95% Vβ5.1/5.2) using negative selection. OT2 T cells were activated in mouse T cell media (RPMI containing 10% FBS, 55 μM 2-ME, 25 mM HEPES, 100 uM Sodium pyruvate, 2 mM Glutamax, non-essential amino acids, 100 U/mL penicillin, and 100 μg/mL streptomycin) and soluble 1 μg/mL anti-CD28 with 50 U/mL IL-2 on plates coated with 10 μg/mL anti-CD3 for 3 days. Following activation, cells were spin-transfected at 3×10^6 cells in 1 mL in 6-well plates with lentivirus and 4 μg/mL dextran (Sigma D9885) at 2,000×g for 60 minutes at 30° C. with no acceleration or break (Kurachi et al., “Optimized Retroviral Transduction of Mouse T Cells for in Vivo Assessment of Gene Function,” Nat. Protoc. 12(9):1980-1998 (2017), which is hereby incorporated by reference in its entirety). Following spinoculation, cells were centrifuged and supernatant was decanted and replaced with fresh media. The next day (day 5) 2 μg/mL puromycin (Gibco) and PMA/ionomycin (BioLegend®) are added to the T cells and incubated for 3 days. On day 8, media was replaced and cells were incubated with PMA/ionomycin again for another 3 days. On day 10, it was confirmed that control cells not transfected with virus were >98% dead and 1.5×10^6 OT2 NS or OT2 eIF4Esh were transferred i.p. to CD45.1 mice. One day following adoptive transfer, mice were placed on doxycycline diet (200 mg/kg) and remained on this diet for the entire study. […]

Question: With “GCGTCAAGCAATCGAGATTTG (SEQ ID NO: 6) (expressed or natural sequence) [eIF4E shRNA, doxycycline-inducible eIF4E shRNA expressed from pTRIPZ lentivirus in OT2 T cells]” as the sequence, how does the “eIF4E silencing in spleen and blood transduced OT2 T cells (lower eIF4E level)” value (Dox-inducible shRNA, seven days following Dox addition, vs NS shRNA) read?
Answer: 3 fold

Question: What about the “fewer TFH cells formed by OT2 T cells” value (day 15 post-transfer, OVA/Alum, vs control NS OT2 cells) of the same sequence?
Answer: 3 fold

Question: And the “level of OT2 T cells in the spleen” value (day 15 post-transfer, vs NS OT2 cells)?
Answer: no impact
